# Measured values: paper PMC11191095, “QSAR Reveals Decreased Lipophilicity of Polar Residues Determines the Selectivity of Antimicrobial Peptide Activity” (ACS Omega, 2024)
# Where a SMILES comes first, the peptide text is derived from it.
# Columns and labels:
# Assay in all cases: microbe, parasite or virus in culture
# P. aeruginosa NCTC 13437 = assay type: cell-based, Pseudomonas aeruginosa; settings: P. aeruginosa NCTC 13437 (R)
# Method: (§1) Antimicrobial activity was evaluated against a panel of 18 pathogens consisting of eight Gram-negative strains (E. coli NCTC 12923, E. coli LEC001, Pseudomonas aeruginosa PAO1, P. aeruginosa NCTC 13437, Acinetobacter baumannii ATCC 17978, A. baumannii AYE, Klebsiella pneumoniae M6, K. pneumoniae NCTC 13368), four Gram-positive strains (Staphylococcus aureus ATCC 9144, S. aureus NCTC 13616, S. aureus USA300, S. aureus 1199B) and six fungi (Candida auris TDG 1912, C. albicans NCPF 8018, C. krusei NCPF 3876, C. tropicalis NCPF 8760, and C. parapsilosis NCPF 3209). Pathogens were grown in noncation adjusted Mueller Hinton broth (MHB, for bacteria) or Roswell Park Memorial Institute (RPMI 1640) + 2% glucose (for fungi) at 37 °C with 180 rpm shaking and maintained on solid media (tryptic soy agar for bacteria and Sabouraud dextrose agar for fungi). For an antibiogram, see Suppl.
# (§2) The 46 peptides were serially diluted (128 to 2 μg/mL) in media down polypropylene 96-well plates. Bacteria or fungi, diluted from an overnight culture to an OD600 of 0.01, were added to the serially diluted peptides at a 1:1 ratio resulting in a starting cell density of ∼5 × 10^5 CFU/mL. Plates were incubated at 37 °C for 20 h, and the optical density was determined spectrophotometrically at 600 nm. Minimum inhibition concentrations (MICs) were determined from a minimum of three biological repeats and are reported in μg/mL as well as μM. […] The MIC50 or MIC90 is defined as the lowest peptide concentration that results in 50% or 90% growth inhibition over a 20 h treatment period, respectively.
# P. aeruginosa PAO1 = assay type: cell-based, Pseudomonas aeruginosa; settings: P. aeruginosa PAO1 (S); shown in µM
# Method: as §1, §2
# C. glabrata NCPF 8018 = assay type: cell-based; settings: C. glabrata NCPF 8018
# In short: (§3)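 Peptides 128→2 μg/mL, 2-fold series; inoculum ~5 × 10^5 CFU/mL from overnight culture (OD600 0.01, mixed 1:1). MHB non-cation-adjusted for bacteria, RPMI 1640 + 2% glucose for fungi. 37 °C, 20 h, OD600. MIC50/MIC90 at 50%/90% inhibition; n ≥ 3.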
# [1] = tested on: C. parapsilosis NCPF 3209; assay type: cell-based; settings: C. parapsilosis NCPF 3209
# In short: as §3
# C. tropicalis NCPF 8760 = assay type: cell-based; settings: C. tropicalis NCPF 8760
# In short: as §3
# C. albicans NCPF 3281 = assay type: cell-based; settings: C. albicans NCPF 3281
# In short: as §3
# C. krusei NCPF 3876 = assay type: cell-based; settings: C. krusei NCPF 3876
# In short: as §3
# K. pneumoniae M6 = assay type: cell-based, Klebsiella pneumoniae; settings: K. pneumoniae M6 (S)
# Method: as §1, §2
# K. pneumoniae NCTC 13368 = assay type: cell-based, Klebsiella pneumoniae; settings: K. pneumoniae NCTC 13368 (R)
# Method: as §1, §2
# E. coli NCTC 12923 = assay type: cell-based, Escherichia coli; settings: E. coli NCTC 12923 (S); shown in µM
# In short: as §3
# E. coli LEC001 = assay type: cell-based, Escherichia coli; settings: E. coli LEC001 (R); shown in µM
# In short: as §3
# A. baumannii ATCC 17978 = assay type: cell-based, Acinetobacter baumannii; settings: A. baumannii ATCC 17978 (S); shown in µM
# In short: as §3
# A. baumannii AYE = assay type: cell-based, Acinetobacter baumannii; settings: A. baumannii AYE (R); shown in µM
# In short: as §3
# C. auris TDG 1912 = assay type: cell-based, Candida auris; settings: C. auris TDG 1912
# In short: as §3
# [2] = tested on: S. aureus (MRSA) NCTC 13616; assay type: cell-based, Staphylococcus aureus; settings: S. aureus (MRSA) NCTC 13616 (R)
# In short: as §3
# S. aureus (MRSA) 1199B = assay type: cell-based, Staphylococcus aureus; settings: S. aureus (MRSA) 1199B (R)
# In short: as §3
# S. aureus (MRSA) USA300 = assay type: cell-based, Staphylococcus aureus; settings: S. aureus (MRSA) USA300 (R)
# In short: as §3
# [3] = tested on: S. aureus (MSSA) ATCC 9144; assay type: cell-based, Staphylococcus aureus; settings: S. aureus (MSSA) ATCC 9144 (S); shown in µM
# In short: as §3
# [4] = 50% growth inhibition, RPMI 1640 + 2% glucose, 37 °C, 20 h
# [5] = 90% growth inhibition, RPMI 1640 + 2% glucose, 37 °C, 20 h
# [6] = MHB, 37 °C, 20 h, OD600, min. three biological repeats
# [7] = 50% growth inhibition, RPMI 1640 + 2% glucose, 37 °C, 20 h, OD600
# [8] = 90% growth inhibition, RPMI 1640 + 2% glucose, 37 °C, 20 h, OD600
compound,measurement,setting,value
CC(C)C[C@H](NC(=O)[C@H](CCCCN)NC(=O)[C@H](CCCCN)NC(=O)[C@H](C)NC(=O)[C@H](CC(C)C)NC(=O)[C@H](CCCCN)NC(=O)[C@H](CO)NC(=O)[C@H](CCCCN)NC(=O)[C@H](Cc1c[nH]c2ccccc12)NC(=O)[C@H](C)NC(=O)[C@H](CCCCN)NC(=O)[C@H](CCCCN)NC(=O)[C@H](CC(C)C)NC(=O)[C@H](Cc1ccccc1)NC(=O)[C@H](CO)NC(=O)CN)C(N)=O [PS-PB-16a] (H-GSFLKKAWKSKLAKKL-NH2),Modal MIC,P. aeruginosa NCTC 13437; shown in µM,67.8 µM
same,Modal MIC,P. aeruginosa PAO1,33.9 µM
same,Modal MIC50,C. glabrata NCPF 8018; [4],> 128 µg/mL
same,Modal MIC90,C. glabrata NCPF 8018; [5],> 128 µg/mL
same,Modal MIC50,C. glabrata NCPF 8018; shown in µM,> 67.8 µM
same,Modal MIC90,C. glabrata NCPF 8018; shown in µM,> 67.8 µM
same,Modal MIC50,[1]; [4],> 128 µg/mL
same,Modal MIC90,[1]; [5],> 128 µg/mL
same,Modal MIC50,[1]; shown in µM,> 67.8 µM
same,Modal MIC90,[1]; shown in µM,> 67.8 µM
same,Modal MIC50,C. tropicalis NCPF 8760; [4],> 128 µg/mL
same,Modal MIC90,C. tropicalis NCPF 8760; [5],> 128 µg/mL
same,Modal MIC50,C. tropicalis NCPF 8760; shown in µM,> 67.8 µM
same,Modal MIC90,C. tropicalis NCPF 8760; shown in µM,> 67.8 µM
same,Modal MIC50,C. albicans NCPF 3281; [4],> 128 µg/mL
same,Modal MIC90,C. albicans NCPF 3281; [5],> 128 µg/mL
same,Modal MIC50,C. albicans NCPF 3281; shown in µM,> 67.8 µM
same,Modal MIC90,C. albicans NCPF 3281; shown in µM,> 67.8 µM
same,Modal MIC50,C. krusei NCPF 3876; [4],> 128 µg/mL
same,Modal MIC90,C. krusei NCPF 3876; [5],> 128 µg/mL
same,Modal MIC50,C. krusei NCPF 3876; shown in µM,> 67.8 µM
same,Modal MIC90,C. krusei NCPF 3876; shown in µM,> 67.8 µM
same,Modal MIC,K. pneumoniae M6; [6],> 128 µg/mL
same,Modal MIC,K. pneumoniae M6; shown in µM,> 67.8 µM
same,Modal MIC,K. pneumoniae NCTC 13368; [6],> 128 µg/mL
same,Modal MIC,K. pneumoniae NCTC 13368; shown in µM,> 67.8 µM
same,Modal MIC,E. coli NCTC 12923,8.5 µM
same,Modal MIC,E. coli LEC001,33.9 µM
same,Modal MIC,A. baumannii ATCC 17978,8.5 µM
same,Modal MIC,A. baumannii AYE,17 µM
same,Modal MIC50,C. auris TDG 1912; [7],> 128 µg/mL
same,Modal MIC90,C. auris TDG 1912; [8],> 128 µg/mL
same,Modal MIC50,C. auris TDG 1912; shown in µM,> 67.8 µM
same,Modal MIC90,C. auris TDG 1912; shown in µM,> 67.8 µM
same,Modal MIC,[2]; [6],> 128 µg/mL
same,Modal MIC,[2]; shown in µM,> 67.8 µM
same,Modal MIC,S. aureus (MRSA) 1199B; [6],> 128 µg/mL
same,Modal MIC,S. aureus (MRSA) 1199B; shown in µM,> 67.8 µM
same,Modal MIC,S. aureus (MRSA) USA300; [6],> 128 µg/mL
same,Modal MIC,S. aureus (MRSA) USA300; shown in µM,> 67.8 µM
same,Modal MIC,[3],17 µM
CC(C)C[C@H](NC(=O)[C@H](CCCCN)NC(=O)[C@H](CO)NC(=O)[C@H](CCCCN)NC(=O)[C@H](Cc1c[nH]c2ccccc12)NC(=O)[C@H](C)NC(=O)[C@H](CCCCN)NC(=O)[C@H](CCCCN)NC(=O)[C@H](CC(C)C)NC(=O)[C@H](Cc1ccccc1)NC(=O)[C@H](CO)NC(=O)CN)C(=O)N[C@@H](C)C(=O)N[C@@H](CCCCN)C(=O)N[C@@H](CCCCN)C(=O)N[C@@H](CC(C)C)C(=O)N[C@@H](CCCNC(=N)N)C(=O)N[C@@H](C)C(=O)N[C@@H](CCCCN)C(=O)NCC(N)=O [PS-PB-20a] (H-GSFLKKAWKSKLAKKLRAKG-NH2),Modal MIC,P. aeruginosa NCTC 13437; [6],> 128 µg/mL
same,Modal MIC,P. aeruginosa NCTC 13437; shown in µM,> 55.7 µM
same,Modal MIC,P. aeruginosa PAO1,55.7 µM
same,Modal MIC50,C. glabrata NCPF 8018; [4],> 128 µg/mL
same,Modal MIC90,C. glabrata NCPF 8018; [5],> 128 µg/mL
same,Modal MIC50,C. glabrata NCPF 8018; shown in µM,> 55.7 µM
same,Modal MIC90,C. glabrata NCPF 8018; shown in µM,> 55.7 µM
same,Modal MIC50,[1]; [4],> 128 µg/mL
same,Modal MIC90,[1]; [5],> 128 µg/mL
same,Modal MIC50,[1]; shown in µM,> 55.7 µM
same,Modal MIC90,[1]; shown in µM,> 55.7 µM
same,Modal MIC50,C. tropicalis NCPF 8760; shown in µM,27.8 µM
same,Modal MIC90,C. tropicalis NCPF 8760; shown in µM,27.8 µM
same,Modal MIC50,C. albicans NCPF 3281; [4],> 128 µg/mL
same,Modal MIC90,C. albicans NCPF 3281; [5],> 128 µg/mL
same,Modal MIC50,C. albicans NCPF 3281; shown in µM,> 55.7 µM
same,Modal MIC90,C. albicans NCPF 3281; shown in µM,> 55.7 µM
same,Modal MIC90,C. krusei NCPF 3876; [5],> 128 µg/mL
same,Modal MIC50,C. krusei NCPF 3876; shown in µM,55.7 µM
same,Modal MIC90,C. krusei NCPF 3876; shown in µM,> 55.7 µM
same,Modal MIC,K. pneumoniae M6; [6],> 128 µg/mL
same,Modal MIC,K. pneumoniae M6; shown in µM,> 55.7 µM
same,Modal MIC,K. pneumoniae NCTC 13368; [6],> 128 µg/mL
same,Modal MIC,K. pneumoniae NCTC 13368; shown in µM,> 55.7 µM
same,Modal MIC,E. coli NCTC 12923,13.9 µM
same,Modal MIC,E. coli LEC001,27.8 µM
same,Modal MIC,A. baumannii ATCC 17978,3.5 µM
same,Modal MIC,A. baumannii AYE,13.9 µM
same,Modal MIC50,C. auris TDG 1912; [7],> 128 µg/mL
same,Modal MIC90,C. auris TDG 1912; [8],> 128 µg/mL
same,Modal MIC50,C. auris TDG 1912; shown in µM,> 55.7 µM
same,Modal MIC90,C. auris TDG 1912; shown in µM,> 55.7 µM
same,Modal MIC,[2]; [6],> 128 µg/mL
same,Modal MIC,[2]; shown in µM,> 55.7 µM
same,Modal MIC,S. aureus (MRSA) 1199B; [6],> 128 µg/mL
same,Modal MIC,S. aureus (MRSA) 1199B; shown in µM,> 55.7 µM
same,Modal MIC,S. aureus (MRSA) USA300; [6],> 128 µg/mL
same,Modal MIC,S. aureus (MRSA) USA300; shown in µM,> 55.7 µM
same,Modal MIC,[3],3.5 µM
